Experiments:
[1] = Cleanout test (residue in polyethylene bottles, acetonitrile extract, HPLC); assay type: physicochemical; details: for Cleanout rating (concentration of thifensulfuron-methyl in the acetonitrile solution): lower rating = more effective cleanout
Procedure: The test was conducted by dispersing in water a sample to produce a concentration that is normally used when applying the herbicide: 25% thifensulfuron-methyl. The sample was added to tap water (300 mL) in a 400 mL beaker and magnetically stirred for 2 minutes. The mixture was then stirred for 2 minutes, whereupon the resulting dispersion was dispensed in three 100 mL aliquots to 4-oz (118 mL) polyethylene bottles. The bottles were capped, inverted twice and allowed to stand overnight.
After standing overnight, each individual bottle was inverted twice and the liquid contents were then poured out. Tap water (10 mL) was added and the bottle was inverted until all sediment was re-suspended, whereupon the contents were poured out. Tap water (100 mL) was added and the bottle was inverted twice and then allowed to stand undisturbed for 10 minutes. The bottle was inverted twice more and the contents were poured out. Acetonitrile (10 mL) was added to the bottle to extract any remaining material. The acetonitrile solution was analyzed by reversed-phase liquid chromatography with UV detection. The cleanout rating (the concentration of thifensulfuron-methyl herbicide in the acetonitrile solution) is reported in % in Table 6 below.

[2] = Viscosity (stated in words, no method given); assay type: physicochemical

| Compound | Cleanout rating (concentration of thifensulfuron-methyl in the acetonitrile solution) ([1]; OD formulation) [%] | Cleanout rating (concentration of thifensulfuron-methyl in the acetonitrile solution) ([1]; SG formulation) [%] | Cleanout rating (concentration of thifensulfuron-methyl in the acetonitrile solution) ([1]; WG formulation) [%] | Viscosity, in words ([2]; listed as thifensulfuron-methyl in amorphous state) | Cleanout properties, in words ([1]; compared with known amorphous thifensulfuron-methyl product) | Viscosity, in words ([2]; listed as crystalline modification I of thifensulfuron-methyl) |
| --- | --- | --- | --- | --- | --- | --- |
| COC(=O)c1sccc1S(=O)(=O)NC(=O)Nc1nc(C)nc(OC)n1 [Amorphous thifensulfuron-methyl, methyl 3-(4-methoxy-6-methyl-1,3,5-triazin-2-ylcarbamoylsulfamoyl)thiophene-2-carboxylate, reference compound] | 26 | 10 | 13 | highly viscous | – | – |
| COC(=O)c1sccc1S(=O)(=O)NC(=O)Nc1nc(C)nc(OC)n1 [Thifensulfuron-methyl, crystalline modification I] [methyl 3-(4-methoxy-6-methyl-1,3,5-triazin-2-ylcarbamoylsulfamoyl)thiophene-2-carboxylate] | 5 | 0.1 | 2 | – | markedly superior cleanout properties | significant decrease in its viscosity |

— patent publication US9663501B1, “Process for preparing a novel crystalline form of thifensulfuron-methyl and use of the same” (ROTAM AGROCHEM INTERNATIONAL COMPANY LIMITED, priority 2015, dated 2017)
